Consider 2 compounds from patent US5420348A, “Urea derivatives and salts thereof” (Yamanouchi Pharmaceutical Co., Ltd., priority 1990, dated 1995).

For assay [1], the target named is acyl-CoA cholesterol acyltransferase (ACAT). Briefly: Inhibitory action against acyl-CoA cholesterol acyltransferase (ACAT) activity in rabbit liver microsome. The format is biochemical. The following applies: 36 μM [1-14C]oleoyl CoA, pH 7.4, 37° C., 10 minutes, read-out: ACAT Inhibiting Activity IC50 (50% Inhibition Concentration). The method, then: i) ACAT enzyme inhibiting activity:
Inhibitory action against acyl-CoA cholesterol acyltransferase (ACAT) activity in rabbit liver microsome
The rabbit liver microsome was prepared as an enzyme fraction according to the method of Heider (J. G. Heider et al., J. of Lipid Res., Vol. 24, 1127-34 (1983)).
To the mixture of 0.154M phosphate buffer solution (pH 7.4), 2 mM dithiothreitol, 36 μM bovine serum albumin and 10-100 μg of microsome fraction was added liposome prepared by the method of Suckling (K. E. Suckling et al., FEBS Letters, Vol. 151, No. 111-116 (1983)) so that the proposition of liposome became 20% v/v. To the mixture was added 2% v/v of each concentration of test compound solution in dimethyl sulfoxide and the mixture was heated at 37° C. for 5 minutes. Then 36 μM oleoyl CoA containing 1^14 C-oleoyl CoA was added and the resultant mixture was heated at 37° C. for 10 minutes. The reaction was stopped by adding chloroform/methanol (=2/1). After stirring, cholesterol oleate extracted into the chloroform layer was separated by thin layer chromatography and the radioactivity was determined as ACAT activity.
In general terms: Liver microsomes are a subcellular fraction often used to study metabolism.

Assay [2] relates to serum total cholesterol. Briefly: Lipid-lowering activity in rats fed a diet containing 1.5% cholesterol and 0.5% bile acid. The format is in vivo. The following applies: Rattus norvegicus; male Sprague-Dawley rats, 1.5% cholesterol/0.5% bile acid diet for 7 days, oral once a day during last 5 days, blood 2 hours after last administration; read-out: % Reduction in Serum Total Cholesterol ED50. An excerpt: ii) Lipid-lowering activity:
Two hours after the last administration, blood samples were collected under ether anesthesia for determination of serum total cholesterol level and HDL-cholesterol level.

Consider `Cc1cc(C)c(NC(=O)N(Cc2ccc3c(c2)Cc2ccccc2-3)C2CCCCCC2)c(C)c1` [Example 1, 1-Cycloheptyl-1-[(2-fluorenyl)methyl]-3-(2,4,6-trimethylphenyl)urea], for which, in assay [1], the IC50 came out at 73 nM. Moreover, in assay [2], the ED50 worked out at 3.8 mg/kg.

On to `Cc1cc(C)c(NC(=O)N(Cc2cc3ccccc3c3ccccc23)C2CCCCCC2)c(C)c1` [Example 10, 1-Cycloheptyl-1-[(9-phenanthrenyl)methyl]-3-(2,4,6-trimethylphenyl)urea], for which the IC50 in assay [1] stood at 61 nM. In addition, in assay [2], the ED50 is 1.7 mg/kg.
